Tests used:
Caco-2 cells = test: Uptake experiment, anthocyanins taken up by cells quantified by HPLC; format: in vitro ADME, human; conditions: for increase in uptake with decreasing pH from 7 to 6.5: 10 µM strawberry anthocyanins; for uptake reduction in the presence of glucose: 20 µM red grape anthocyanin extract, 1 mM glucose vs control without glucose; for Normalised Uptake (%): extrapolated to initial amount 10 µg/10 mL, intercept set at zero; for Uptake (%): 1 h, % of initial concentration
Procedure: Caco-2 cells were seeded at a density of 5 × 10^5 cells in a Petri dish of 10 cm diameter with a volume of 10 mL, containing DMEM supplemented with 10% FBS, 1% NEAA and 1% penicillin and streptomycin. […] Caco-2 cells were used between passages 65–76. The medium was changed every 2–3 days. On day 14, the cells were ready for the uptake experiment. Prior to the study, the medium were removed, and the cells were rinsed with PBS.
The effect of anthocyanin structure was examined using anthocyanin extract from strawberry at 10 and 20 µM while the effect of glucose was performed at 20 µM red grape anthocyanin extract in the presence of 1 mM glucose. Additionally, 10 µM strawberry anthocyanins at pH 6.5 and 7 was used to examine the effect of pH on anthocyanin uptake.
Briefly anthocyanin stock solution was diluted to a final concentration of 10 or 20 µM in DPBS. The anthocyanins (10 mL) were immediately added to the cells, and subsequently incubated at 37 °C for 1h. Following the incubation, DPBS containing anthocyanins was removed and the cells were washed with PBS three times. The anthocyanins taken up by the cells were extracted with 6% formic acid and scraped off for collection. The extract along with the scraped cells were then sonicated, followed by centrifugation at 4 °C, 1700× g for 10 min. The supernatant was filtered and dried under nitrogen. The dry anthocyanins were redissolved in 200 µL of aqueous formic acid containing 10% acidified methanol, and then filtered into the insert prior to HPLC analysis.
HPLC was used to identify and quantify anthocyanins present in juices and cellular extract following the uptake experiment. Anthocyanin standards and their standard curves were used to identify and quantify different anthocyanin structure present in juices and cellular extracts by determining their area under curve. The analysis was performed using an Agilent 1200 series HPLC with quaternary pump and diode array UV-visible detector. Sample (50 µL) was injected onto a reverse phase column of Nova-pak@C18 4 µm, with dimensions of 4.6 × 250 mm (Waters) equipped with a guard column. The mobile phases were 1% aqueous formic acid as solvent A and acetonitrile as solvent B. The flow rate was 1 mL/min with a column temperature of 35 °C. […] Solvent B was maintained at 100% for 5 min, and returned to 100% solvent A and 0% solvent B at 60 min. Wavelengths of 280 and 520 nm were chosen to detect the anthocyanins.

[1] = Anthocyanin stability during 1 h incubation at pH 7 and 6.5; format: physicochemical
Procedure: To assess degradation due to the pH, strawberry juice extract was incubated under the same conditions in the absence of the cells (Figure 3II). […] Anthocyanins can form additional compounds important for copigmentation with phenolic acids and can form pyranoanthocyanins.
The increased uptake with decreasing pH may be linked to the anthocyanins stability and indicate the involvement of pH dependent transport mechanisms involving a proton co-transporter.

[2] = Extrapolation of Caco-2 uptake to jejunum uptake and blood/plasma concentration; conditions: absorption of 0.88 mg, assuming 5 litres of blood
[3] = parameters: method as in PMID 18211024; conditions: strawberries containing 222 µmol pelargonidin-3-O-glucoside ingested; cited from earlier work
[4] = strawberry anthocyanins at 10 µM, initial amount Cn 1.91, Pg 45.69, Pg-rham 14.50 µg/10 mL
[5] = strawberry anthocyanins at 20 µM, initial amount Cn 3.89, Pg 95.23, Pg-rham 29.59 µg/10 mL

| Compound | increase in uptake with decreasing pH from 7 to 6.5 (Caco-2 cells) | Normalised Uptake (%) (Caco-2 cells) | Uptake (%) (Caco-2 cells; [4]) | stability ([1]; pH 6.5, 1 h incubation) | stability ([1]; pH 7, 1 h incubation) | uptake reduction in the presence of glucose (Caco-2 cells) | also measured |
| --- | --- | --- | --- | --- | --- | --- | --- |
| OC[C@H]1O[C@@H](Oc2cc3c(O)cc(O)cc3[o+]c2-c2ccc(O)c(O)c2)[C@H](O)[C@@H](O)[C@@H]1O [cyanidin-3-glucoside] | 139% | 0.159% | 2.32 × 10^−2% | 88.7% | 63.1% | 67% | Uptake (%) (Caco-2 cells; strawberry anthocyanins at 20 µM, initial amount Cn 3.89, Pg 95.23, Pg-rham 29.59 µg/10 mL, listed as Cn): 6.54 × 10^−2% |
| OC[C@H]1O[C@@H](Oc2cc3c(O)cc(O)cc3[o+]c2-c2cc(O)c(O)c(O)c2)[C@H](O)[C@@H](O)[C@@H]1O [delphinidin-3-glucoside] |  |  |  |  |  | 42% |  |
| COc1cc(-c2[o+]c3cc(O)cc(O)c3cc2O[C@@H]2O[C@H](CO)[C@@H](O)[C@H](O)[C@H]2O)cc(OC)c1O [malvidin-3-glucoside] |  |  |  |  |  | 69–72% |  |
| COc1cc(-c2[o+]c3cc(O)cc(O)c3cc2O[C@@H]2O[C@H](CO)[C@@H](O)[C@H](O)[C@H]2O)cc(O)c1O [petunidin-3-glucoside] |  |  |  |  |  | 69–72% |  |
| pelargonidin-O-glucuronide |  |  |  |  |  |  | peak plasma concentration [3]: 274 ± 24 nM; time of peak plasma concentration [3]: 1.1 ± 0.4 h |

The next lines start with results.

| increase in uptake with decreasing pH from 7 to 6.5 (Caco-2 cells) | Normalised Uptake (%) (Caco-2 cells) | Uptake (%) (Caco-2 cells; [4]) | stability ([1]; pH 6.5, 1 h incubation) | stability ([1]; pH 7, 1 h incubation) | Compound | uptake reduction in the presence of glucose (Caco-2 cells) | also measured |
| --- | --- | --- | --- | --- | --- | --- | --- |
| 118% | 0.007% | 2.88 × 10^−2% | 93.7% | 67.7% | OC[C@H]1O[C@@H](Oc2cc3c(O)cc(O)cc3[o+]c2-c2ccc(O)cc2)[C@H](O)[C@@H](O)[C@@H]1O [pelargonidin-3-glucoside] |  | Uptake (%) (Caco-2 cells; [5]): 6.95 × 10^−2%; blood concentration [2]: 400 nM; plasma concentration [2]: 727 nM |
| 88% | 0.02% | 2.66 × 10^−2% | 91.8% | 72.3% | pelargonidin-3-rhamnosylglucoside |  | Uptake (%) (Caco-2 cells; [5]): 5.93 × 10^−2% |

From paper PMC9698201, “Factors Affecting Cellular Uptake of Anthocyanins: The Role of pH, Glucose and Anthocyanin Structure” (Nutrients, 2022)
